ChEMBL document CHEMBL5465560, “Selectivity Literature for EUbOPEN Chemogenomic Library” (2024)
Each block holds one compound with its values, some of them ahead of it.

Key:
[1] = molecular target: T1, Cyclin-dependent kinase-like 2 (Homo sapiens) (UniProt Q92772); experiment: Selectivity interaction (Ambit KINOMEscan and KiNATiv profiling in Jurkat cells) EUB0000090b CDKL2; assay type: cell-based; conditions: at 1 µM
T1 sequence (whole entry): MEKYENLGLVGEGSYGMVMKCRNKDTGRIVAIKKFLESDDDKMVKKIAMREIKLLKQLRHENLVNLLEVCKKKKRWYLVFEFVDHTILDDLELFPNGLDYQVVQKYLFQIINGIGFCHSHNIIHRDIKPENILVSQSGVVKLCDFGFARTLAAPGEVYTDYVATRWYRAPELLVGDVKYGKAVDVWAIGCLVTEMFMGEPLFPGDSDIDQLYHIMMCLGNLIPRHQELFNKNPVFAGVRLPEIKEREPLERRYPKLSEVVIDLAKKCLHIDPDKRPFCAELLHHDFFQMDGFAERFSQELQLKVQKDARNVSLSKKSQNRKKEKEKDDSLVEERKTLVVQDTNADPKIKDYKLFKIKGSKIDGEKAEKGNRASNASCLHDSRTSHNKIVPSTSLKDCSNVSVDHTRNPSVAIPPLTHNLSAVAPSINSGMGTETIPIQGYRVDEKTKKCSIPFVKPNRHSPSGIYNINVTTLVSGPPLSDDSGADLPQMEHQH

[2] = molecular target: Serine/threonine-protein kinase 32C (Homo sapiens) (UniProt Q86UX6); experiment: Selectivity interaction (ActivX KiNativ screen (kinase selectivity in THP-1 cell lysates)) EUB0000639a STK32C; assay type: subcellular; conditions: lysate
Serine/threonine-protein kinase 32C (Homo sapiens), sequence (Q86UX6 whole entry): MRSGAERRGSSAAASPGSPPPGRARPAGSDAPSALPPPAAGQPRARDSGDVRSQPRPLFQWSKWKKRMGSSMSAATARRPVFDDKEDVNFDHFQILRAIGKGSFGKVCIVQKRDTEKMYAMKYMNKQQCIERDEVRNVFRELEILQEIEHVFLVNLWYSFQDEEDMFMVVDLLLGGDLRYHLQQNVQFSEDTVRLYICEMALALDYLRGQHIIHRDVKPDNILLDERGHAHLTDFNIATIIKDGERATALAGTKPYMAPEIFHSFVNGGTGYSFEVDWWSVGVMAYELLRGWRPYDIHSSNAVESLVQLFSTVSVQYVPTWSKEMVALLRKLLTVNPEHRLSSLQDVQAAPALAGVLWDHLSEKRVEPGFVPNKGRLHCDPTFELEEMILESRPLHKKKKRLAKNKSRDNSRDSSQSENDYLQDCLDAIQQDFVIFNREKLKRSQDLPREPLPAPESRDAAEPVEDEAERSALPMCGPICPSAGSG

[3] = molecular target: T2, Atypical kinase COQ8B, mitochondrial (Homo sapiens) (UniProt Q96D53); experiment: Selectivity interaction (KinomeScan (DiscoverX)) EUB0001079a ADCK4; conditions: at 1 µM
T2 sequence (whole entry): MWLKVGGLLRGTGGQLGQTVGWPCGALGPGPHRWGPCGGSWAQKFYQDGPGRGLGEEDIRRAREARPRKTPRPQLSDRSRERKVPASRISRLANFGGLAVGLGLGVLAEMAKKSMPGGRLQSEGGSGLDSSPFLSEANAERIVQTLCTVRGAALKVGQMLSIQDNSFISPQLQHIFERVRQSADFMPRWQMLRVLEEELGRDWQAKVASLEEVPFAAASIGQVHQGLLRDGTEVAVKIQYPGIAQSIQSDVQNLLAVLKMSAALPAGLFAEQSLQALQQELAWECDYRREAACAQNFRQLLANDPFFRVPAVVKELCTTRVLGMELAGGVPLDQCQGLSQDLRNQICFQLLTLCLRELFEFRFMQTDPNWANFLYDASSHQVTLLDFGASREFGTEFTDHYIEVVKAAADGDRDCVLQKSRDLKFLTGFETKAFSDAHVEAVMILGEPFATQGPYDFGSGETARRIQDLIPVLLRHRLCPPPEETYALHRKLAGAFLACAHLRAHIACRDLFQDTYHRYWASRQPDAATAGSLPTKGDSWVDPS

[4] = molecular target: Homeodomain-interacting protein kinase 3 (Homo sapiens, UniProt Q9H422); experiment: Selectivity interaction (Upstate Kinase Profiler service (Millipore)) EUB0000056c HIPK3; conditions: at 1 µM
Homeodomain-interacting protein kinase 3, sequence (Q9H422 whole entry, looked up): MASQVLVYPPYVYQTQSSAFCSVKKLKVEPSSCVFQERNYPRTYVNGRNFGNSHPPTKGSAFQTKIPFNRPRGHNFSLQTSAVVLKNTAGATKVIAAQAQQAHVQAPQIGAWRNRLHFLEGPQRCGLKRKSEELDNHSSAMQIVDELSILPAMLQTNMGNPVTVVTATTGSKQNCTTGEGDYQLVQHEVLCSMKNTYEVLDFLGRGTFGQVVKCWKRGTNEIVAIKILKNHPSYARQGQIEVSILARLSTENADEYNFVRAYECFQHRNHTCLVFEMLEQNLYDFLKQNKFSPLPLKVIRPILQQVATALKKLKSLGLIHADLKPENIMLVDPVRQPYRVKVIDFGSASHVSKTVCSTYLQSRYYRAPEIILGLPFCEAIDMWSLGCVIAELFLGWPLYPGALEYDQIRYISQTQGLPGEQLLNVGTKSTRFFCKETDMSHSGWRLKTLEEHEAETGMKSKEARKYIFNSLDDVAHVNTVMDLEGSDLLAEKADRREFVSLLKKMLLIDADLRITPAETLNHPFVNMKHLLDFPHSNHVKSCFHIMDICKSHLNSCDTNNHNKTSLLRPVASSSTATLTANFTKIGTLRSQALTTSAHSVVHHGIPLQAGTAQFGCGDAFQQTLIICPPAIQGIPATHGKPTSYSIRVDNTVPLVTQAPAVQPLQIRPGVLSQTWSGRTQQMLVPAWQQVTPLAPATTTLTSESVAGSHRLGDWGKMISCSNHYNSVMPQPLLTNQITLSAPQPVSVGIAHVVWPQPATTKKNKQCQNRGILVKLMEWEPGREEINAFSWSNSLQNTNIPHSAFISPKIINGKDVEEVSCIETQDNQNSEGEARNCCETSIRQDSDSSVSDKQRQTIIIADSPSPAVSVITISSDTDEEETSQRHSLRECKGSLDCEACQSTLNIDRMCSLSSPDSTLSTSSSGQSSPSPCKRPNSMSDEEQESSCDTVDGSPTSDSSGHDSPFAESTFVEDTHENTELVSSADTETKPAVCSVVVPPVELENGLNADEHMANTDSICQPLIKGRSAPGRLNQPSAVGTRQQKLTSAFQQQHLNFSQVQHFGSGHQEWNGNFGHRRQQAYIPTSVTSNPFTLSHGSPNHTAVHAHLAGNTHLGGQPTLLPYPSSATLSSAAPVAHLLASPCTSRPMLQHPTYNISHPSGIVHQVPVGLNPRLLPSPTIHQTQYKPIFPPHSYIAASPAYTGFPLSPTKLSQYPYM

[5] = molecular target: T3, Non-receptor tyrosine-protein kinase TNK1 (Homo sapiens) (UniProt Q13470); experiment: Selectivity interaction (KinomeScan (DiscoverX)) EUB0000618a TNK1; conditions: at 10 µM
T3 sequence (whole entry): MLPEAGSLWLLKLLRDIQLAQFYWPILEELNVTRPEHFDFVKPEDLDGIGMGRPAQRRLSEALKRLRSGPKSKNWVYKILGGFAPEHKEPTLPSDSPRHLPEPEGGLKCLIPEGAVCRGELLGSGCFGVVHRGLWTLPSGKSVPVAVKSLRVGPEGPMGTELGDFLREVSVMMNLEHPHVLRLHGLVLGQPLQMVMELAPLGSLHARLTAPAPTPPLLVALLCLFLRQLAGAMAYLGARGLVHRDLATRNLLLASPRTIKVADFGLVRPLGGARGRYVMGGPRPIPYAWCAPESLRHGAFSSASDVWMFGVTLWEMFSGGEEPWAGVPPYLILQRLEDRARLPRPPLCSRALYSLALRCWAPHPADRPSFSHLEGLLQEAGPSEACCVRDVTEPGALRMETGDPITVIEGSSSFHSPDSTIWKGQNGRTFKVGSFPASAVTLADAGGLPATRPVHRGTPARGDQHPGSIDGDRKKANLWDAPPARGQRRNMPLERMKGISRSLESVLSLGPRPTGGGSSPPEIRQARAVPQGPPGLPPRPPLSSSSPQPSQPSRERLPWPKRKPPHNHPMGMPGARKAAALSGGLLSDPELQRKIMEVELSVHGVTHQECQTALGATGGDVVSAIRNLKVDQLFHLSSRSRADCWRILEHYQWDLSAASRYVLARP

[6] = molecular target: Cyclin-dependent kinase 3 (Homo sapiens) (UniProt Q00526); experiment: Selectivity interaction (KinomeScan (DiscoverX)) EUB0000607a CDK3; conditions: at 10 µM
Cyclin-dependent kinase 3 (Homo sapiens), sequence (Q00526 whole entry, looked up): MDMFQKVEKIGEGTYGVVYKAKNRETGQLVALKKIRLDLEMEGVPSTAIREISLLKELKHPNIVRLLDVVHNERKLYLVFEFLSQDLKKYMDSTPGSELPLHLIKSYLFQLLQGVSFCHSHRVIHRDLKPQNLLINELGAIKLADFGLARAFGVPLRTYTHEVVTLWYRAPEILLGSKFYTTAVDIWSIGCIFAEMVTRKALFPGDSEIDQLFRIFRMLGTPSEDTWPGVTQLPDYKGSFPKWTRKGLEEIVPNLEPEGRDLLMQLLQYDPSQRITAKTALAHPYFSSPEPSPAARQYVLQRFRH

Compound: CN(C)C/C=C/C(=O)Nc1ccc(C(=O)N2CCCC(Nc3ncc(Cl)c(-c4c[nH]c5ccccc45)n3)C2)cc1 (stereo not given)
- % of control [1]: 75%

- % of inhibition ([2]; at 0.01 µM): -1.5%
- % of inhibition ([2]; at 0.04 µM): -7.2%
- % of inhibition ([2]; at 0.2 µM): -0.3%
- % of inhibition ([2]; at 1 µM): -5.2%
- % of inhibition ([2]; at 5 µM): -11.5%
Compound: CC[C@@H]1[C@H](F)C(=O)N[C@@H]1COc1nccc2cc(C(N)=O)c(OC)cc12 [ZIMLOVISERTIB]

Compound: Nc1cnc(N2CCc3cc(S(=O)(=O)Nc4c(F)cc(Cl)cc4F)cc(N4CCCC4=O)c32)nc1 [TP-020n]
- % of control [3]: 100%

- % of inhibition [4]: -11%
Compound: Cc1ccc(-c2ccc3c(ccc4sc5c(c43)NC[C@@H](C)NC5=O)n2)cn1

Compound: O[C@H]1CC[C@H](Nc2ncc3nc(Nc4c(F)cc(F)cc4F)n([C@H]4CCOC4)c3n2)CC1
- % of control [5]: 97%

Compound: CNC(=O)Nc1ccc(-c2nc(N3CC4CCC(C3)O4)c3cnn(C4CCC5(CC4)OCCO5)c3n2)cc1
- % of control [6]: 99%
